In PubChem BioAssay AID202 (DTP/NCI, 2004):
“And” between values parts separate entries of the source, which are not always exact repeats. Equal values may be shown once.

Test system: HT29 xenograft, nude mice, s.c., tumor weight T/C%
Test: NCI In Vivo Anticancer Drug Screen. Data for tumor model HT29;CX-1 Human Adenocarcinoma (MER+) (subcutaneous) in NU/NU Swiss (nude) mice
Conditions: endpoint: optimum tumor weight change, higher = larger tumour
Method: The antitumor activity of compounds was measured in mice bearing transplantable tumors. Survival or tumor size were measured and the results are expressed as the measurement made in the treated group (T) divided by the measurement made in the vehicle treated control group (C). The tumor model used in this assay is HT29;CX-1 Human Adenocarcinoma (MER+) (subcutaneous) in NU/NU Swiss (nude) mice

[1] = dose: 100.0 mg/kg/injection, schedule: Q04DX003 (ip), vehicle: suspension in saline
[2] = dose: 200.0 mg/kg/injection, schedule: Q04DX003 (ip), vehicle: suspension in saline
[3] = dose: 400.0 mg/kg/injection, schedule: Q04DX003 (ip), vehicle: suspension in saline
[4] = dose: 800.0 mg/kg/injection, schedule: Q04DX003 (ip), vehicle: suspension in saline
[5] = dose: 50.0 mg/kg/injection, schedule: Q04DX003 (ip), vehicle: Klucel (hydroxypropylcellulose) (HPC)
[6] = dose: 25.0 mg/kg/injection, schedule: Q04DX003 (ip), vehicle: Klucel (hydroxypropylcellulose) (HPC)
[7] = dose: 100.0 mg/kg/injection, schedule: Q04DX003 (ip), vehicle: Klucel (hydroxypropylcellulose) (HPC)
[8] = dose: 100.0 mg/kg/injection, schedule: Q04DX003 (ip), vehicle: saline
[9] = dose: 200.0 mg/kg/injection, schedule: Q04DX003 (ip), vehicle: saline
[10] = dose: 400.0 mg/kg/injection, schedule: Q04DX003 (ip), vehicle: saline
[11] = dose: 50.0 mg/kg/injection, schedule: Q04DX003 (ip), vehicle: saline

For COc1cc([C@@H]2c3cc4c(c(O)c3C[C@H]3COC(=O)[C@@H]32)OCO4)cc(OC)c1O, the T/C (dose: 3.13 mg/kg/injection, schedule: Q04DX003 (ip), vehicle: saline) was 63 % of control and the T/C (dose: 6.25 mg/kg/injection, schedule: Q04DX003 (ip), vehicle: saline) was 53 % of control.
O=c1n[n+]([O-])ccn1C1OC(CO)C(O)C1O (centres undefined) was tested, and the T/C [1] was 75 % of control, the T/C [2] was 71 % of control and the T/C [3] was 68 % of control. For the same compound, the T/C [4] was 82 % of control.
With Cc1c(N)nc(C(CC(N)=O)NCC(N)C(N)=O)nc1C(=O)NC(C(=O)NC(C)C(O)CC(=O)NC(C(=O)NC(OC1OC(C)C(N)C(O)C1O)C(O)c1nc(-c2nc(C(=O)NCCCC(N)CC(=O)NCCCNCCCCN)cs2)cs1)C(C)O)C(OC1OC(CO)C(O)C(O)C1OC1OC(CO)C(O)C(OC(N)=O)C1O)c1cnc[nH]1 (centres undefined) the T/C (dose: 0.5 mg/kg/injection, schedule: Q04DX003 (ip), vehicle: saline) was 92 % of control, the T/C (dose: 1.0 mg/kg/injection, schedule: Q04DX003 (ip), vehicle: saline) was 45 % of control and the T/C (dose: 2.0 mg/kg/injection, schedule: Q04DX003 (ip), vehicle: saline) was 39 % of control.
For COc1cc2c[n+](C)c3c4cc5c(cc4ccc3c2cc1OC)OCO5, the T/C (dose: 20.0 mg/kg/injection, schedule: Q04DX003 (ip), vehicle: saline with Tween-80) was 111 % of control, the T/C (dose: 40.0 mg/kg/injection, schedule: Q04DX003 (ip), vehicle: saline with Tween-80) was 124 % of control and the T/C (dose: 80.0 mg/kg/injection, schedule: Q04DX003 (ip), vehicle: saline with Tween-80) was 50 % of control.
For Nc1nc(N)c2cc(CNc3ccc(C(=O)NC(CC(=O)O)CC(=O)O)cc3)ccc2n1, the T/C [5] was 84 % of control.
In the case of CCOC(=O)Nc1cc2c(c(N)n1)N=C(CN(C)c1ccccc1)CN2, the T/C (dose: 12.5 mg/kg/injection, schedule: Q04DX003 (ip), vehicle: Klucel (hydroxypropylcellulose) (HPC)) is reported as 74 % of control, the T/C [6] is reported as 116 % of control and the T/C [5] is reported as 71 % of control. For the same compound, the T/C [7] was 90 % of control.
With O=C[C@@H](CO)O[C@H](C=O)n1cnc2c(=O)[nH]cnc21 the T/C [8] was 57 % of control, the T/C [9] was 85 % of control and the T/C [10] was 48 % of control.
With CCOC(=O)C1C2OC(=O)C(C(=O)C2CN(CCCl)CCCl)C1C1CC=C(CC2=CCC(C3C4C(=O)OC(C(CN(CCCl)CCCl)C4=O)C3C(=O)OCC)CC2)CC1 (centres undefined) the T/C [6] was 91 % of control, the T/C [5] was 66 % of control and the T/C [7] was 69 % of control.
CNC=O was tested, and the T/C [9] was 168 % of control, the T/C [10] was 78 % of control and the T/C (dose: 800.0 mg/kg/injection, schedule: Q04DX003 (ip), vehicle: saline) was 104 % of control.
c1cc2n(n1)CCN2 was tested, and the T/C [11] was 42 % of control, the T/C [8] was 50 % of control and the T/C [9] was 63 % of control. The T/C [10] was 41 % of control.
In the case of CC(C)=CCNc1ncnc2c1ncn2C1OC(CO)C(O)C1O (centres undefined), the T/C [1] is reported as 106 % of control, the T/C [2] is reported as 77 % of control and the T/C [3] is reported as 65 % of control. For the same compound, the T/C [4] was 64 % of control.
For N=C(N)Sc1ccccn1, the T/C [11] was 77 % of control, the T/C [8] was 112 % of control and the T/C [9] was 65 % of control.
CC(=O)c1c(O)c(C)c(O)c2c1OC1=CC(=O)C(C(C)=O)C(=O)C12C (centres undefined) was tested, and the T/C (dose: 50.0 mg/kg/injection, schedule: Q01DX003 (ip), vehicle: sodium bicarbonate) was 88 % of control, the T/C (dose: 100.0 mg/kg/injection, schedule: Q01DX003 (ip), vehicle: sodium bicarbonate) was 97 % of control and the T/C (dose: 200.0 mg/kg/injection, schedule: Q01DX003 (ip), vehicle: sodium bicarbonate) was 82 % of control.
For CC(=O)OCC1OC(n2ccc(N)nc2=O)C(OC(C)=O)C1OC(C)=O (centres undefined), the T/C [1] was 65 % of control and 89 % of control and the T/C [2] was 56 % of control.
In the case of Cc1c(CNc2ccc(C(=O)NC(CC(=O)O)C(=O)O)cc2)ccc2nc(N)nc(N)c12 (centres undefined), the T/C (dose: 3.0 mg/kg/injection, schedule: Q04DX003 (ip), vehicle: saline with Tween-80) is reported as 109 % of control, the T/C (dose: 6.0 mg/kg/injection, schedule: Q04DX003 (ip), vehicle: saline with Tween-80) is reported as 153 % of control and the T/C (dose: 12.0 mg/kg/injection, schedule: Q04DX003 (ip), vehicle: saline with Tween-80) is reported as 92 % of control.
For CN(C)c1nc(N(C)C)nc(N(C)C)n1, the T/C (dose: 60.0 mg/kg/injection, schedule: Q07DX005 (ip), vehicle: Klucel (hydroxypropylcellulose) (HPC)) was 91 % of control and 114 % of control, the T/C (dose: 120.0 mg/kg/injection, schedule: Q01DX005 (ip), vehicle: Klucel (hydroxypropylcellulose) (HPC)) was 38 % of control and 47 % of control and the T/C (dose: 120.0 mg/kg/injection, schedule: Q07DX005 (ip), vehicle: Klucel (hydroxypropylcellulose) (HPC)) was 72 % of control and 78 % of control. For the same compound, the T/C (dose: 240.0 mg/kg/injection, schedule: Q04DX005 (ip), vehicle: Klucel (hydroxypropylcellulose) (HPC)) was 27 % of control and 38 % of control and the T/C (dose: 240.0 mg/kg/injection, schedule: Q07DX005 (ip), vehicle: Klucel (hydroxypropylcellulose) (HPC)) was 37 % of control.
For Oc1ccc(O)cc1, the T/C [11] was 173 % of control.
With O=C1N[C@@H]([C@H]2CC[C@H](Cl)CN2)C(=O)N[C@H]1[C@H]1CC[C@H](Cl)CN1 the T/C (dose: 0.31 mg/kg/injection, schedule: Q01DX001 (ip), vehicle: water) was 53 % of control, the T/C (dose: 0.63 mg/kg/injection, schedule: Q01DX001 (ip), vehicle: water) was 64 % of control and the T/C (dose: 1.25 mg/kg/injection, schedule: Q01DX001 (ip), vehicle: water) was 79 % of control.
For CO[C@H]1C[C@](C)(O)Cc2cc3c(c(O)c21)C(=O)c1c(O)cc2c(c1C3=O)O[C@@H]1O[C@@]2(C)[C@H](O)[C@@H](N(C)C)[C@@H]1O, the T/C (dose: 3.13 mg/kg/injection, schedule: Q04DX003 (ip), vehicle: other) was 97 % of control, the T/C (dose: 6.25 mg/kg/injection, schedule: Q04DX003 (ip), vehicle: other) was 124 % of control and the T/C (dose: 12.5 mg/kg/injection, schedule: Q04DX003 (ip), vehicle: other) was 68 % of control. The T/C (dose: 25.0 mg/kg/injection, schedule: Q04DX003 (ip), vehicle: other) was 61 % of control and 75 % of control.
For COC1C(O)CC(OC2CC(OC3CC(O[C@@H]4C(=O)c5c(cc6cc(OC7CC(OC8CC(O)C(O)C(C)O8)C(O)C(C)O7)c(C)c(O)c6c5O)C[C@H]4[C@H](OC)C(=O)[C@@H](O)[C@@H](C)O)OC(C)C3O)OC(C)C2O)OC1C (some centres undefined), the T/C (dose: 1.5 mg/kg/injection, schedule: Q04DX003 (ip), vehicle: saline) was 52 % of control.
